Measured values taken from ChEMBL document CHEMBL5649169 (ChemMedChem, 2018).

How the values were obtained:
[1] = molecular target: Tyrosine-protein kinase ABL1 (Homo sapiens, UniProt P00519)
[2] = molecular target: Sarcoplasmic/endoplasmic reticulum calcium ATPase 2 (Homo sapiens) (UniProt P16615)
[3] = molecular target: ATP synthase F(0) complex subunit f, mitochondrial (Homo sapiens) (UniProt P56134)
[4] = molecular target: eIF5-mimic protein 2 (Homo sapiens) (UniProt Q7L1Q6)
Cyclin-A2 (Homo sapiens) = Cyclin-A2 (Homo sapiens) (UniProt P20248)
Cyclin-T2 (Homo sapiens) = Cyclin-T2 (Homo sapiens) (UniProt O60583)
[5] = molecular target: T-complex protein 1 subunit eta (Homo sapiens) (UniProt Q99832)
[6] = molecular target: Serine/threonine-protein kinase MRCK beta (Homo sapiens) (UniProt Q9Y5S2)
[7] = molecular target: Cell division cycle 7-related protein kinase (Homo sapiens) (UniProt O00311)
[8] = molecular target: Cyclin-dependent kinase 13 (Homo sapiens) (UniProt Q14004)
Chain of Cyclin-dependent kinase 13 (Homo sapiens) (Q14004 whole entry, looked up): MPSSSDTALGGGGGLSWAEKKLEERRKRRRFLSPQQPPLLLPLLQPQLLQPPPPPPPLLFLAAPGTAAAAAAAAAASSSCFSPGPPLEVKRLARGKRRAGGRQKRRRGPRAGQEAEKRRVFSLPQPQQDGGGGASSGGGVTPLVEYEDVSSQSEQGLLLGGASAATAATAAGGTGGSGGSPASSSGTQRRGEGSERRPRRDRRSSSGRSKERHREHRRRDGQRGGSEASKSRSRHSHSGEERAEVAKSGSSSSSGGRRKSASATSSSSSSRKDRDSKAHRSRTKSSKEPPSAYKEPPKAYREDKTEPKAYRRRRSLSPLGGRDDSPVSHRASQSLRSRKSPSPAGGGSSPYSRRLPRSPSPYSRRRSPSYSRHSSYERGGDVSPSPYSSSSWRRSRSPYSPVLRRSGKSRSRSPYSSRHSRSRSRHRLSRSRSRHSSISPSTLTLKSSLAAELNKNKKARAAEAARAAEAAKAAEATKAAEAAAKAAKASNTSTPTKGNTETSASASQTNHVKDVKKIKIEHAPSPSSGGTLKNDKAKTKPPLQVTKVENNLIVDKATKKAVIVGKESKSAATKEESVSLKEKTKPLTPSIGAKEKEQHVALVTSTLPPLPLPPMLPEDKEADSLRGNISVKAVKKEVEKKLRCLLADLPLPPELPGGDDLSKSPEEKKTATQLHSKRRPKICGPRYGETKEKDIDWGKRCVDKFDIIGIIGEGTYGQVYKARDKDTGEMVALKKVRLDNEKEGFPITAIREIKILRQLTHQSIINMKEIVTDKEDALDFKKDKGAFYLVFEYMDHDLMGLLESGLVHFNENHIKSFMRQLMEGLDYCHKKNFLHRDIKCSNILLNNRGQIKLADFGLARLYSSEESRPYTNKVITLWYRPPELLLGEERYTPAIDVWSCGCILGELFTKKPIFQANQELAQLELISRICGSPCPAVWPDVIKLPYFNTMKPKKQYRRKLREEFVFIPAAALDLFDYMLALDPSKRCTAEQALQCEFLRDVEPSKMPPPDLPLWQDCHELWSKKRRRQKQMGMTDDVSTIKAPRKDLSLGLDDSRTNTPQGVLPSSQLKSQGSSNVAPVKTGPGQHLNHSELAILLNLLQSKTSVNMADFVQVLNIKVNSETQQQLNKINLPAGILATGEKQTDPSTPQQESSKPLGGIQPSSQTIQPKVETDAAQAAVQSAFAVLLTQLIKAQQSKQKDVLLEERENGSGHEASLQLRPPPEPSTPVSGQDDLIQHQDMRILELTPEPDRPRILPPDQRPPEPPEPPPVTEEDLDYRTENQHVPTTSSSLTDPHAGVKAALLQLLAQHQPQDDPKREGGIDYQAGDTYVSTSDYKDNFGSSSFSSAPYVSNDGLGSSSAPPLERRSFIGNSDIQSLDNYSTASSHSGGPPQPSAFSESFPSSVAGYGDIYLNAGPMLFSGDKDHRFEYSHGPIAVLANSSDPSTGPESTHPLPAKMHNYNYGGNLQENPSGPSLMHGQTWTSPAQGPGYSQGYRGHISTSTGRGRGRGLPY

[9] = molecular target: Cyclin-dependent kinase-like 5 (Homo sapiens) (UniProt O76039)
Anamorsin (Homo sapiens) = Anamorsin (Homo sapiens) (UniProt Q6FI81)
[10] = molecular target: Coatomer subunit gamma-2 (Homo sapiens) (UniProt Q9UBF2)
[11] = molecular target: Carnitine O-palmitoyltransferase 1, liver isoform (Homo sapiens) (UniProt P50416)
Homo sapiens [12] = species on record: Homo sapiens
[13] = molecular target: Src substrate cortactin (Homo sapiens) (UniProt Q14247)
[14] = molecular target: 2,4-dienoyl-CoA reductase [(3E)-enoyl-CoA-producing], mitochondrial (Homo sapiens) (UniProt Q16698)
[15] = molecular target: 7-dehydrocholesterol reductase (Homo sapiens) (UniProt Q9UBM7)
[16] = molecular target: Desmoplakin (Homo sapiens) (UniProt P15924)
[17] = molecular target: Cytoplasmic dynein 1 light intermediate chain 1 (Homo sapiens) (UniProt Q9Y6G9)
[18] = molecular target: Enoyl-CoA delta isomerase 1, mitochondrial (Homo sapiens) (UniProt P42126)
[19] = molecular target: Cyclin-G-associated kinase (Homo sapiens) (UniProt O14976)
[20] = molecular target: Stalled ribosome sensor GCN1 (Homo sapiens) (UniProt Q92616)
[21] = molecular target: HLA class I histocompatibility antigen, C alpha chain (Homo sapiens) (UniProt P10321)
[22] = molecular target: Mitogen-activated protein kinase kinase kinase 2 (Homo sapiens) (UniProt Q9Y2U5)
Midasin (Homo sapiens) = Midasin (Homo sapiens) (UniProt Q9NU22)
[23] = molecular target: Misshapen-like kinase 1 (Homo sapiens) (UniProt Q8N4C8)
[24] = molecular target: Nuclear pore complex protein Nup93 (Homo sapiens) (UniProt Q8N1F7)
[25] = molecular target: ORM1-like protein 3 (Homo sapiens) (UniProt Q8N138)
[26] = molecular target: Inorganic pyrophosphatase (Homo sapiens) (UniProt Q15181)
[27] = molecular target: Serine/threonine-protein phosphatase 2A 65 kDa regulatory subunit A alpha isoform (Homo sapiens) (UniProt P30153)
[28] = molecular target: 26S proteasome non-ATPase regulatory subunit 2 (Homo sapiens) (UniProt Q13200)
Chain of 26S proteasome non-ATPase regulatory subunit 2 (Homo sapiens) (Q13200 whole entry): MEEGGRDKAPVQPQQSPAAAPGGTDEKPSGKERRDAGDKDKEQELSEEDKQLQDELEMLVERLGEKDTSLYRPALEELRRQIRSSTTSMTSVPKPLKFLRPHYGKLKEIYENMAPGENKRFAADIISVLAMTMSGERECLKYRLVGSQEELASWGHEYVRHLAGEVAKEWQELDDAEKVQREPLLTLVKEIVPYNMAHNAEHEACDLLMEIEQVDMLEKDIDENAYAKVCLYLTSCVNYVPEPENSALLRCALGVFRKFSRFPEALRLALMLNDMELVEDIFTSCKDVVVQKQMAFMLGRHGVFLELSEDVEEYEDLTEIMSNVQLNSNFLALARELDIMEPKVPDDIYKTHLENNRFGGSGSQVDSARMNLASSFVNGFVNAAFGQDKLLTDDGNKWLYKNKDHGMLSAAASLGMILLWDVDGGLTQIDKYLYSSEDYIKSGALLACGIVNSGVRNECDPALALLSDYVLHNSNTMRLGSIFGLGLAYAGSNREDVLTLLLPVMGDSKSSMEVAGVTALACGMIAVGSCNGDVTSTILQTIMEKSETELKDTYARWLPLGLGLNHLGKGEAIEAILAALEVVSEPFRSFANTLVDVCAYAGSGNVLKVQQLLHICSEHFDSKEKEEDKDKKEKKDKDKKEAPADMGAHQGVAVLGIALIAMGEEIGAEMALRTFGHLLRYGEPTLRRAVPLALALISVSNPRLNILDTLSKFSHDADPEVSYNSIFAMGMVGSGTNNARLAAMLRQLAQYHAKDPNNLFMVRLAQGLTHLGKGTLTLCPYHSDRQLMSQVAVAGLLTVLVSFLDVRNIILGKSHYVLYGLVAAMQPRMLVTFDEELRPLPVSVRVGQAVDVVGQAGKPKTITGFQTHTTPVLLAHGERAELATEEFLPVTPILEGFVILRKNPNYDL

[29] = molecular target: 26S proteasome non-ATPase regulatory subunit 7 (Homo sapiens) (UniProt P51665)
Homo sapiens [30] = species on record: Homo sapiens; remark: listed apart in the source
[31] = molecular target: Receptor-interacting serine/threonine-protein kinase 3 (Homo sapiens) (UniProt Q9Y572)
[32] = molecular target: Large ribosomal subunit protein eL38 (Homo sapiens) (UniProt P63173)
[33] = molecular target: Large ribosomal subunit protein uL2 (Homo sapiens) (UniProt P62917)
[34] = molecular target: Small ribosomal subunit protein eS10 (Homo sapiens) (UniProt P46783)
[35] = molecular target: ADP/ATP translocase 3 (Homo sapiens) (UniProt P12236)
[36] = molecular target: Structural maintenance of chromosomes protein 2 (Homo sapiens) (UniProt O95347)
[37] = molecular target: Serine/threonine-protein kinase 4 (Homo sapiens) (UniProt Q13043)
Chain of Serine/threonine-protein kinase 4 (Homo sapiens) (Q13043 whole entry): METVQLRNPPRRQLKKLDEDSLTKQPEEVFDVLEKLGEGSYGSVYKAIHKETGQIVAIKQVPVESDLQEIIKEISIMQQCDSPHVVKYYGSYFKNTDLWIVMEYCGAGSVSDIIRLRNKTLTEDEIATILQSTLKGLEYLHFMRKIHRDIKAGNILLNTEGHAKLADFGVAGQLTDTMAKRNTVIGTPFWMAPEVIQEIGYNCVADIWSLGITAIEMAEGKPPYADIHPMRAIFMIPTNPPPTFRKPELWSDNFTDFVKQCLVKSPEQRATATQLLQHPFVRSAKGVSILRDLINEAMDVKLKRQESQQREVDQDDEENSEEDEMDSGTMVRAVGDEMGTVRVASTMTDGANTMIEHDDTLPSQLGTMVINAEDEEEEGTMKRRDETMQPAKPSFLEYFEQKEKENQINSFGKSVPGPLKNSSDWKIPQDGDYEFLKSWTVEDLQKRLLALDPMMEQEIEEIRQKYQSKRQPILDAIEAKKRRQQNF

[38] = molecular target: Putative divalent cation/proton antiporter TMEM165 (Homo sapiens) (UniProt Q9HC07)
[39] = molecular target: Tubulin beta-4B chain (Homo sapiens) (UniProt P68371)
Vimentin (Homo sapiens) = Vimentin (Homo sapiens) (UniProt P08670)
[40] = molecular target: Vitamin K epoxide reductase complex subunit 1-like protein 1 (Homo sapiens) (UniProt Q8N0U8)
[41] = molecular target: Exportin-7 (Homo sapiens) (UniProt Q9UIA9)
Chain of Exportin-7 (Homo sapiens) (Q9UIA9 whole entry): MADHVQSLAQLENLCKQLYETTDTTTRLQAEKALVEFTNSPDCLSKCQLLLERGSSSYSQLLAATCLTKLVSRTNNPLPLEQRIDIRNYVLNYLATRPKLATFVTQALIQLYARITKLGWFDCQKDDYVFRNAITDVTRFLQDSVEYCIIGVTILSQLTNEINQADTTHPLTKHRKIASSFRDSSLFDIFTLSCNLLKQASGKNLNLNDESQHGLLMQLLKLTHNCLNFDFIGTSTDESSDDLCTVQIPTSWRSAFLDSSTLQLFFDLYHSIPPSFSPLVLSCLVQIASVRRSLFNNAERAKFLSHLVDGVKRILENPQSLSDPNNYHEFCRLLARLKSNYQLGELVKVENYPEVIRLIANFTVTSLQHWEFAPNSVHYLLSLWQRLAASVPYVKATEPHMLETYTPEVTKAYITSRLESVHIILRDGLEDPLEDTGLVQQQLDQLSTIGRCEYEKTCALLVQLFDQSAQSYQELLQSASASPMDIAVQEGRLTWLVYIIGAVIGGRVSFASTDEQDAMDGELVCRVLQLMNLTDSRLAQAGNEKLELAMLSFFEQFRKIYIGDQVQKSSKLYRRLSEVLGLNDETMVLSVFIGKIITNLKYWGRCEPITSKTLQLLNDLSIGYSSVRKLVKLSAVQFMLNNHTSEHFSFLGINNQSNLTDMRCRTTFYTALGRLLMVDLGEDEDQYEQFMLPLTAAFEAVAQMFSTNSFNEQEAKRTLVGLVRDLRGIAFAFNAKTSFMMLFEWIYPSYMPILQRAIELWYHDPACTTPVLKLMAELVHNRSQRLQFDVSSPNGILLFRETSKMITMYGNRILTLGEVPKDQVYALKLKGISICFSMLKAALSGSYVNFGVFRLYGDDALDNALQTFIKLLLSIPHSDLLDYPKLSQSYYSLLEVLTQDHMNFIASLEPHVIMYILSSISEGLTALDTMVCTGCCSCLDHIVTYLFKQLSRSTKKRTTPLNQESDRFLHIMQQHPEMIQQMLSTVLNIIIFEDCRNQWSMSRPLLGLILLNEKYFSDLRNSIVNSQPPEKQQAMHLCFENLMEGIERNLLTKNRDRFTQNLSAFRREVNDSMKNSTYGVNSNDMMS

[42] = molecular target: Protein YIPF5 (Homo sapiens) (UniProt Q969M3)
Further: assay method not described here.

Chain of Tyrosine-protein kinase ABL1 (P00519 whole entry): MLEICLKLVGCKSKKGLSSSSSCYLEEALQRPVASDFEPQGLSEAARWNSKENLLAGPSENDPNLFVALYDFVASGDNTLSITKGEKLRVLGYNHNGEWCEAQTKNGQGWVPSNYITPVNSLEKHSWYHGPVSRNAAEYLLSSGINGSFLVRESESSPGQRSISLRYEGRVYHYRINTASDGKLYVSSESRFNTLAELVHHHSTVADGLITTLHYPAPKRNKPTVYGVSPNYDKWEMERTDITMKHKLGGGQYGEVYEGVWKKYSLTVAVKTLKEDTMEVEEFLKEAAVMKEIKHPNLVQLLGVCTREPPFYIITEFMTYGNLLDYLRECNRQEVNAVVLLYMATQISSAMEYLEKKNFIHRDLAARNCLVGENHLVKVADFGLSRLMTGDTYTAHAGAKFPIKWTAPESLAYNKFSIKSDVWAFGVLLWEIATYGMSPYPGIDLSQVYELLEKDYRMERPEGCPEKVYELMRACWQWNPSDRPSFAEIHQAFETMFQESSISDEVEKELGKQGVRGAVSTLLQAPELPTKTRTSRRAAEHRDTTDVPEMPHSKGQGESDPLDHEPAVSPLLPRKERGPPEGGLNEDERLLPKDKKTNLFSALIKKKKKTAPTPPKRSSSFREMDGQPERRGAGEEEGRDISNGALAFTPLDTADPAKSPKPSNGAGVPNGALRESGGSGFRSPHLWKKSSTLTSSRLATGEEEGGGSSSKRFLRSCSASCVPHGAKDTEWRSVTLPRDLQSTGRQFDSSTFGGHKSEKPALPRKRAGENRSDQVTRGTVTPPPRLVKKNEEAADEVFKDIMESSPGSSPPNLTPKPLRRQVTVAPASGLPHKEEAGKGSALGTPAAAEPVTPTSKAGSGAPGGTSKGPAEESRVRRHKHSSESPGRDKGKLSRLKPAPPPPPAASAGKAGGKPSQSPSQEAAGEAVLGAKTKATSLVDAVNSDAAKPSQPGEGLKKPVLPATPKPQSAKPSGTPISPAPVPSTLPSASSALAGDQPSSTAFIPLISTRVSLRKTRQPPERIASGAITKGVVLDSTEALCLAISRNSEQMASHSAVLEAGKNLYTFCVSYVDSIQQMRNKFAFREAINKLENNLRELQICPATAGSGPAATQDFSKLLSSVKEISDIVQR

## Cc1ccc(C(=O)Nc2cccc(C(F)(F)F)c2)cc1Nc1nc(-c2cccnc2)nc2nn(C)cc12
[1]
  ED50: 1.34 µM
[2]
  ED50: 0.0232 µM
[3]
  ED50: 0.002 µM
[4]
  ED50: 2.54 µM
Cyclin-A2 (Homo sapiens)
  ED50: 0.586 µM
Cyclin-T2 (Homo sapiens)
  ED50: 0.0632 µM
[5]
  ED50: 0.117 µM
[6]
  ED50: 0.00892 µM
[7]
  ED50: 0.869 µM
[8]
  ED50: 8.22 µM
[9]
  ED50: 0.543 µM
Anamorsin (Homo sapiens)
  ED50: 78.8 µM
[10]
  ED50: 0.051 µM
[11]
  ED50: 0.0676 µM
Homo sapiens [12]
  ED50: 0.00933 µM
[13]
  ED50: 19.6 µM
[14]
  ED50: 10.5 µM
[15]
  ED50: 0.0055 µM
[16]
  ED50: 0.288 µM
[17]
  ED50: 0.897 µM
[18]
  ED50: 64 µM
[19]
  ED50: 2.32 µM
[20]
  ED50: 0.0579 µM
[21]
  ED50: 2.07 µM
[22]
  ED50: 9.44 µM
Midasin (Homo sapiens)
  ED50: 0.048 µM
[23]
  ED50: 36.4 µM
[24]
  ED50: 1.55 µM
[25]
  ED50: 7.47 µM
[26]
  ED50: 1.31 µM
[27]
  ED50: 203 µM
[28]
  ED50: 14.9 µM
[29]
  ED50: 0.0711 µM
Homo sapiens [30]
  ED50: 0.0718 µM
[31]
  ED50: 6.31 µM
[32]
  ED50: 0.0274 µM
[33]
  ED50: 0.121 µM
[34]
  ED50: 0.0425 µM
[35]
  ED50: 0.122 µM
[36]
  ED50: 0.0113 µM
[37]
  ED50: 0.0498 µM
[38]
  ED50: 0.0171 µM
[39]
  ED50: 0.0012 µM
Vimentin (Homo sapiens)
  ED50: 1.62 µM
[40]
  ED50: 2.51 µM
[41]
  ED50: 0.0173 µM
[42]
  ED50: 0.0595 µM

## Cc1ccc(C(=O)Nc2cccc(C(F)(F)F)c2)cc1Nc1nc(-c2cccnc2)nc2c1cnn2C
[1]
  ED50: 1.66 µM
[2]
  ED50: 9.67 µM
[3]
  ED50: 0.0206 µM
[4]
  ED50: 0.571 µM
Cyclin-A2 (Homo sapiens)
  ED50: 4.89 µM
Cyclin-T2 (Homo sapiens)
  ED50: 12.8 µM
[5]
  ED50: 50.3 µM
[6]
  ED50: 0.641 µM
[7]
  ED50: 0.00127 µM
[8]
  ED50: 17.8 µM
[9]
  ED50: 0.00162 µM
Anamorsin (Homo sapiens)
  ED50: 0.0673 µM
[10]
  ED50: 7.49 µM
[11]
  ED50: 0.0014 µM
Homo sapiens [12]
  ED50: 3.03 µM
[13]
  ED50: 0.0605 µM
[14]
  ED50: 3.63 µM
[15]
  ED50: 0.0142 µM
[16]
  ED50: 22.3 µM
[17]
  ED50: 0.0244 µM
[18]
  ED50: 5.02 µM
[19]
  ED50: 4.02 µM
[20]
  ED50: 0.085 µM
[21]
  ED50: 3.75 µM
[22]
  ED50: 0.1 µM
Midasin (Homo sapiens)
  ED50: 55500 µM
[23]
  ED50: 6.35 µM
[24]
  ED50: 3.25 µM
[25]
  ED50: 5.95 µM
[26]
  ED50: 8.44 µM
[27]
  ED50: 2 µM
[28]
  ED50: 3.14 µM
[29]
  ED50: 4.12 µM
Homo sapiens [30]
  ED50: 322 µM
[31]
  ED50: 2.75 µM
[32]
  ED50: 8.36 µM
[33]
  ED50: 0.0503 µM
[34]
  ED50: 0.042 µM
[35]
  ED50: 2.19 µM
[36]
  ED50: 5.62 µM
[37]
  ED50: 2.73 µM
[38]
  ED50: 8.83 µM
[39]
  ED50: 2.68 µM
Vimentin (Homo sapiens)
  ED50: 1.03 µM
[40]
  ED50: 5.89 µM
[41]
  ED50: 0.0517 µM
[42]
  ED50: 1.94 µM
